In ChEMBL document CHEMBL3862033 (J Med Chem, 2016):

Experiments:
[1] = biological target: 5-hydroxytryptamine receptor 1B (Homo sapiens) (UniProt P28222); assay: Displacement of [3H]5-CT from human 5-HT1BR expressed in HEK cell membranes at 10 uM incubated for 90 mins under dark condition by microbeta scintillation counting method relative to control; conditions: HEK293
Adenosine receptor A1 = biological target: T1, Adenosine receptor A1 (Homo sapiens, UniProt P30542); assay: Displacement of [3H]N6-phenylisopropyladenosine from recombinant human A1AR expressed in CHO cell membranes after 60 mins by liquid scintillation counting method
T1 sequence (P30542 whole entry): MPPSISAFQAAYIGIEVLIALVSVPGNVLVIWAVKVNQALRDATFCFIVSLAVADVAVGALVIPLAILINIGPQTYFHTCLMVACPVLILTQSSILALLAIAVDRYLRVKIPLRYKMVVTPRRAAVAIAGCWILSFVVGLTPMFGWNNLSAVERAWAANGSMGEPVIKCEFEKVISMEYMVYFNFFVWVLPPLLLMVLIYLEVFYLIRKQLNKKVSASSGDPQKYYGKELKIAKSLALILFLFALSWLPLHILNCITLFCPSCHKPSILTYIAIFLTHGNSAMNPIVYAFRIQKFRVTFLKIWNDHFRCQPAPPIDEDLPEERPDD

[2] = biological target: T2, 5-hydroxytryptamine receptor 2B (Homo sapiens, UniProt P41595); conditions: HEK293, at 10 µM
T2 sequence (P41595 whole entry): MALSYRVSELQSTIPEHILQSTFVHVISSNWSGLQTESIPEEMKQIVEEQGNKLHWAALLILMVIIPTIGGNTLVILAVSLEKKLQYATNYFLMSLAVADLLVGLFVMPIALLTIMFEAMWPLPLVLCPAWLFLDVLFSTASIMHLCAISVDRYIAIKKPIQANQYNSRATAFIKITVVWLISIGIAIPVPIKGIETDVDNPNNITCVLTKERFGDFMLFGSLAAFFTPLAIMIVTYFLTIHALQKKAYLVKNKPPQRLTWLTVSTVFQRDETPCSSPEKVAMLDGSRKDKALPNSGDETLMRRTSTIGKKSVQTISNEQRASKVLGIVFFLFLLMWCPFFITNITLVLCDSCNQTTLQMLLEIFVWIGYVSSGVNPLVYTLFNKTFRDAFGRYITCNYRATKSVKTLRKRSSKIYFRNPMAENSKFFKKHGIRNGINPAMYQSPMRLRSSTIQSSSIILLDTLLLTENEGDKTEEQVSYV

[3] = biological target: 5-hydroxytryptamine receptor 6 (Homo sapiens) (UniProt P50406); assay: Displacement of [3H]LSD from human 5-HT6 receptor expressed in HEK cell membranes at 10 uM incubated for 90 mins under dark condition by microbeta scintillation counting method relative to control; conditions: HEK293
Chain of 5-hydroxytryptamine receptor 6 (Homo sapiens) (P50406 whole entry): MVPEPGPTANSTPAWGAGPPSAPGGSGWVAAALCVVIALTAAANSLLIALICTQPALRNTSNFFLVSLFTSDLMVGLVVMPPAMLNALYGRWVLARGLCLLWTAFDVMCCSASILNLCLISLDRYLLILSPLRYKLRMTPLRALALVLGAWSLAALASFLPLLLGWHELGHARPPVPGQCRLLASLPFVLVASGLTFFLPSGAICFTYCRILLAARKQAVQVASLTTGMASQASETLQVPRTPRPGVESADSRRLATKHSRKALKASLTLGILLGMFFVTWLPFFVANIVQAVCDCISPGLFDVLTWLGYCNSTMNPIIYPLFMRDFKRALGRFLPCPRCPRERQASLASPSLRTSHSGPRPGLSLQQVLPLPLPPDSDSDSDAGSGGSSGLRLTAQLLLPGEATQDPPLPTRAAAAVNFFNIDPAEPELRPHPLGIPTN

[4] = biological target: 5-hydroxytryptamine receptor 1D (Homo sapiens) (UniProt P28221); assay: Displacement of [3H]5-CT from human 5-HT1D receptor expressed in HEK-T cell membranes at 10 uM incubated for 90 mins under dark condition by microbeta scintillation counting method relative to control
Chain of 5-hydroxytryptamine receptor 1D (Homo sapiens) (P28221 whole entry): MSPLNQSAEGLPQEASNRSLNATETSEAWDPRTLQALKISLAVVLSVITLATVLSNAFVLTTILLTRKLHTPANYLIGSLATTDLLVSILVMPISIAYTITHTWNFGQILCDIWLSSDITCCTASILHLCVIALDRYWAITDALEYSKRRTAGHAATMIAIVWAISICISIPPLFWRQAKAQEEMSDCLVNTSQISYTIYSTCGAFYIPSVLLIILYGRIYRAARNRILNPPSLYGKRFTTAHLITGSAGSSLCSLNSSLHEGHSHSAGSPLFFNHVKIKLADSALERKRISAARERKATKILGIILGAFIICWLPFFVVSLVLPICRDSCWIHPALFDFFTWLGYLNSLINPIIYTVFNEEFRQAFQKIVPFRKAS

Adenosine receptor A3 = biological target: T3, Adenosine receptor A3 (Homo sapiens, UniProt P0DMS8); assay: Displacement of [125l]N 6-(4-amino-3-iodobenzyl)adenosine-5'-N-methyluronamide from recombinant human A3AR expressed in CHO cell membranes after 60 mins by gamma counting method
T3 sequence (P0DMS8 whole entry): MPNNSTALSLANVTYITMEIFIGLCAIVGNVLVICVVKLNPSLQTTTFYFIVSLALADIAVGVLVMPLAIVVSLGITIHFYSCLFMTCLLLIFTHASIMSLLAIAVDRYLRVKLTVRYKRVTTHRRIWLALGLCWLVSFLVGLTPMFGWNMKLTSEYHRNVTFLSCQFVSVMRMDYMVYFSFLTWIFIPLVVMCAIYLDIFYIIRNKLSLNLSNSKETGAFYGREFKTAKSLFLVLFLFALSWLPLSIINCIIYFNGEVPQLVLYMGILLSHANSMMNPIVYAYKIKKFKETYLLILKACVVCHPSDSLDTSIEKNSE

[5] = biological target: T4, 5-hydroxytryptamine receptor 2C (Homo sapiens) (UniProt P28335); assay: Displacement of [3H]mesulergine from human 5-HT2CR expressed in Flp-In HEK cell membranes at 10 uM incubated for 90 mins under dark condition by microbeta scintillation counting method relative to control; conditions: HEK293
T4 sequence (whole entry): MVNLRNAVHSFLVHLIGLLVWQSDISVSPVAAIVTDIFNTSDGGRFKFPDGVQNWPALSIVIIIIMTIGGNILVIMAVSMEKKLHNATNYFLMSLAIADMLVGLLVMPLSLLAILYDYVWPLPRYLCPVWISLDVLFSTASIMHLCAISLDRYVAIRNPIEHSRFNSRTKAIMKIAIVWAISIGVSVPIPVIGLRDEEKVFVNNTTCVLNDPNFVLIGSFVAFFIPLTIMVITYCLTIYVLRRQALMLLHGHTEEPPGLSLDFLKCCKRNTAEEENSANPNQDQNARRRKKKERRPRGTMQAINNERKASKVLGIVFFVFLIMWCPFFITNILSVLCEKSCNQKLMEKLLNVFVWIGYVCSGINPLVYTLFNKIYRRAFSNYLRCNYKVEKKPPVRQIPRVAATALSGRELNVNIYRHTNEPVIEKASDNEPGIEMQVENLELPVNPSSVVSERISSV

[6] = biological target: T2, 5-hydroxytryptamine receptor 2B; assay type: functional, cell-based, HEK293
[7] = biological target: 5-hydroxytryptamine receptor 1E (Homo sapiens) (UniProt P28566); assay: Displacement of [3H]5-HT from human 5-HT1E receptor expressed in HEK cell membranes at 10 uM incubated for 90 mins under dark condition by microbeta scintillation counting method relative to control; conditions: HEK293
Chain of 5-hydroxytryptamine receptor 1E (Homo sapiens) (P28566 whole entry): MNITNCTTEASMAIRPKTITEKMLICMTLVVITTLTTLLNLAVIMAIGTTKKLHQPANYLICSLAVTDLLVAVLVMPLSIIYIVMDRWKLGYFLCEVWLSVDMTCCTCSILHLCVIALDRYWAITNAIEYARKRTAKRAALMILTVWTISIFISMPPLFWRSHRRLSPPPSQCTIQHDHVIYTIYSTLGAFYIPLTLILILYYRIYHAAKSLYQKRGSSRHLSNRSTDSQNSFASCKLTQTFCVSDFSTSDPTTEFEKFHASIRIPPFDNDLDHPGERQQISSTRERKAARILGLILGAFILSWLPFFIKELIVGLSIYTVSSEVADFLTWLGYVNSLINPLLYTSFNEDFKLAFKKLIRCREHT

[8] = biological target: T2, 5-hydroxytryptamine receptor 2B; assay: biochemical; assay type: cell-based, HEK293
[9] = biological target: T5, 5-hydroxytryptamine receptor 2C (Homo sapiens, UniProt P28335); assay: Displacement of [3H]mesulergine from human 5-HT2CR expressed in Flp-In HEK cell membranes incubated for 90 mins under dark condition by microbeta scintillation counting method; design: species or system HEK293
T5 sequence (P28335 whole entry): T4 sequence (whole entry)

[10] = biological target: 5-hydroxytryptamine receptor 2A (Homo sapiens, UniProt P28223); assay: Displacement of [3H]ketanserin from human 5-HT2A receptor expressed in HEK-T cell membranes incubated for 90 mins under dark condition by microbeta scintillation counting method
Chain of 5-hydroxytryptamine receptor 2A (P28223 whole entry): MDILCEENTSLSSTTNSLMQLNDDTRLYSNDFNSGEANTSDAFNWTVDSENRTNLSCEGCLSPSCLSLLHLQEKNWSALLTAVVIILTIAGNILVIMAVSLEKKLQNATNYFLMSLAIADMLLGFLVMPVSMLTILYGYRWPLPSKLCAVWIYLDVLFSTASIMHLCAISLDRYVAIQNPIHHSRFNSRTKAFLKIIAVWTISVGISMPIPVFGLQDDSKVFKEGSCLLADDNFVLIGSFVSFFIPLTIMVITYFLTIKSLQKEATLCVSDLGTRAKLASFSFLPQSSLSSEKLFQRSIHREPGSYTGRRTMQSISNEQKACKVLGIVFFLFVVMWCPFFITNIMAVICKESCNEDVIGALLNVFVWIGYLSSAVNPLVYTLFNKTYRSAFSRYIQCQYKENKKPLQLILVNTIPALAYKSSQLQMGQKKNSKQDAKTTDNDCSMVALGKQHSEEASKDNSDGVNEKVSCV

[11] = biological target: T6, 5-hydroxytryptamine receptor 3A (Homo sapiens) (UniProt P46098); assay: Displacement of [3H]GR65630 from human 5-HT3 receptor expressed in HEK-T cell membranes at 10 uM incubated for 90 mins under dark condition by microbeta scintillation counting method relative to control
T6 sequence (whole entry): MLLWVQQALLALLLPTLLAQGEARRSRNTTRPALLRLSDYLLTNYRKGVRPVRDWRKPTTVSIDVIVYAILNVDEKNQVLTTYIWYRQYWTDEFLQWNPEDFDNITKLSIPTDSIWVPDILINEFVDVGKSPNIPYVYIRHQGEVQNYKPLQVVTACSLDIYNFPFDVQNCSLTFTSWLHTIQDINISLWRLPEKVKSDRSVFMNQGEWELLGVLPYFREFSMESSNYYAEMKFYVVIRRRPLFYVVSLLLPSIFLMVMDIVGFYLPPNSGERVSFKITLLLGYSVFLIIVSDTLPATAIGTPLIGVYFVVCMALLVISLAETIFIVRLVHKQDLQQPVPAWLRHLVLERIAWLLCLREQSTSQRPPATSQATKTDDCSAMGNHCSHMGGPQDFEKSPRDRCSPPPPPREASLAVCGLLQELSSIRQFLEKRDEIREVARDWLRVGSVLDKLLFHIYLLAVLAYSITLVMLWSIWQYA

[12] = biological target: T5, 5-hydroxytryptamine receptor 2C; assay: Antagonist activity at human 5-HT2CR expressed in Flp-In HEK cells assessed as inhibition of serotonin induced calcium mobilization preincubated for 5 to 10 mins followed 5-Ht addition by Fluo-4 dye based FLIPR assay; assay type: functional, cell-based, HEK293
[13] = biological target: 5-hydroxytryptamine receptor 7 (Homo sapiens) (UniProt P34969); assay: Displacement of [3H]LSD from human 5-HT7A receptor expressed in HEK cell membranes at 10 uM incubated for 90 mins under dark condition by microbeta scintillation counting method relative to control; conditions: HEK293
Chain of 5-hydroxytryptamine receptor 7 (Homo sapiens) (P34969 whole entry): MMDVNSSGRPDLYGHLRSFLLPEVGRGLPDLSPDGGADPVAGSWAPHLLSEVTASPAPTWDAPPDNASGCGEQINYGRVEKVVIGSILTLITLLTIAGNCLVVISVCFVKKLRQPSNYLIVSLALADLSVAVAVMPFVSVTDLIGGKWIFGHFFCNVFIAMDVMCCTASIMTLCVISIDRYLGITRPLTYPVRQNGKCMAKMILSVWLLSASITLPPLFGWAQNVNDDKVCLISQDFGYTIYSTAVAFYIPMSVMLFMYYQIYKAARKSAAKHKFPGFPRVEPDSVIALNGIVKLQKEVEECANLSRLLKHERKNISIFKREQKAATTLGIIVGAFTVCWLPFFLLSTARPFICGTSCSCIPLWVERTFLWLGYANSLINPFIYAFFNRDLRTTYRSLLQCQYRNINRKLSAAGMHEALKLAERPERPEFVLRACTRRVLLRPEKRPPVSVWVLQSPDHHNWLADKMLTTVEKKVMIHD

Chain of 5-hydroxytryptamine receptor 1B (Homo sapiens) (P28222 whole entry): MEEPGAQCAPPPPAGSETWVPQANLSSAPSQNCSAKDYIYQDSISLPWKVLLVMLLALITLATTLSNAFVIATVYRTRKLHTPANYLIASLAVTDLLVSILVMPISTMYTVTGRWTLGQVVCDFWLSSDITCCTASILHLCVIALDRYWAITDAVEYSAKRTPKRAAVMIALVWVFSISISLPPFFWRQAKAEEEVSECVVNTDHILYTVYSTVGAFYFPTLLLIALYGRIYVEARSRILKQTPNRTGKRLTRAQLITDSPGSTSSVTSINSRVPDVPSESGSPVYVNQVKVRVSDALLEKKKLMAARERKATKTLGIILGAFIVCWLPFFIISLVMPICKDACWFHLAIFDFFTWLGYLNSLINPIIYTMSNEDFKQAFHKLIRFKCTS

SMILES	inhibition [1] [%]	Ki (Adenosine receptor A1) [nM]	inhibition [2] [%]	inhibition [3] [%]	inhibition [4] [%]	Ki (Adenosine receptor A3) [nM]	inhibition [5] [%]	Ki [6] [nM]	inhibition [7] [%]	Ki [8] [nM]	Ki [9] [nM]	Ki [10] [nM]	inhibition [11] [%]	Ki [12] [nM]	inhibition [13] [%]
CCOC(=O)[C@@]12C[C@@H]1[C@@H](n1cnc3c(NC(C4CC4)C4CC4)nc(Cl)nc31)[C@H](O)[C@@H]2O	< 50	360	> 50	< 50	< 50	236	> 50	1.8	< 50	15	30	> 10000	< 50	3.9	< 50
CNC(=O)[C@@]12C[C@@H]1[C@@H](n1cnc3c(NC(C4CC4)C4CC4)nc(Cl)nc31)[C@H](O)[C@@H]2O	< 50	110	> 50	< 50	< 50	34	> 50	4.4	< 50	23	269	> 10000	< 50	752	< 50
COC(=O)[C@@]12C[C@@H]1[C@@H](n1cnc3c(NC(C4CC4)C4CC4)nc(Cl)nc31)[C@H](O)[C@@H]2O	< 50	437	> 50	< 50	< 50	766	> 50	3.2	< 50	19	117	> 10000	< 50	4.1	< 50
OC[C@@]12C[C@@H]1[C@@H](n1cnc3c(NC(C4CC4)C4CC4)nc(Cl)nc31)[C@H](O)[C@@H]2O	< 50	39		< 50	< 50	1600	> 50		< 50		84	> 10000	< 50	337	< 50
